Results from publication PMC9904277, “Rational design of Harakiri (HRK)-derived constrained peptides as BCL-xL inhibitors” (Chemical Communications (Cambridge, England), 2023).
Each block holds one compound with its values, some of them ahead of it. *1 amine or outer side, *2 acyl side, *3 side chain or, on linkers, in order; H or OH if unused. Where a SMILES comes first, the peptide text is derived from it. Bridges are numbered along the chain shown (N, C = ends). [ ]: non-standard residue; d: D form. The star is where a group is joined. 5FAM = O=C1OC2(c3ccc(O)cc3Oc3cc(O)ccc32)c2ccc(C(=O)*)cc21; Maleimide(3,4-diyl) = O=C1NC(=O)C([*:2])=C1[*:1]; Nle = CCCC[C@H](N)C(=O)O; Ahx = NCCCCCC(=O)O

Assays:
[1] = biological target: T1, MCL-1 (Homo sapiens, UniProt Q07820); assay: biochemical
T1 sequence (Q07820 172-327): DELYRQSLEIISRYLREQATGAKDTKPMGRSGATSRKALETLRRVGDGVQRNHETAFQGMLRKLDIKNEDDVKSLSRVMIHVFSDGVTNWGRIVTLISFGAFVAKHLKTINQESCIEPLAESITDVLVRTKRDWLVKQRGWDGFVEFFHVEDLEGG

[2] = biological target: T2, BCL-xL (Homo sapiens, UniProt Q07817, DEL27-82); assay: Direct FA titration of FAM-labelled tracer with BCL-xL; format: binding; settings: FAM-Ahx-Beclin-1 150 nM, BCL-xL 6 nM-125 μM, 25 mM Tris, 150 mM NaCl, pH 7.4, 20 °C
T2 construct: BCL-2, 1-209; His-SUMO (N, cleaved yes); made in house; host or cells: E. coli BL21
T2 sequence (Q07817 with tags, fused parts or gaps DEL27-82): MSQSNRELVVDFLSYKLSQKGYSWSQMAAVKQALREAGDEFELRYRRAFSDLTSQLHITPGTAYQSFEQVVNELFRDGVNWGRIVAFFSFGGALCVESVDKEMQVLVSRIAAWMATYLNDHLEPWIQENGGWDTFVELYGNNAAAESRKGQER

[3] = biological target: T1, MCL-1; settings: IC50 HRK/MCL-1 divided by IC50 HRK/BCL-xL

Compound: CSCC[C@H](NC(=O)[C@H](CCCNC(=N)N)NC(=O)[C@H](CCCNC(=N)N)NC(=O)[C@H](CC(C)C)NC(=O)[C@H](CCC(=O)O)NC(=O)[C@H](CCCNC(=N)N)NC(=O)CNC(=O)[C@H](Cc1ccc(O)cc1)NC(=O)[C@H](CCCNC(=N)N)NC(=O)[C@H](CCC(N)=O)NC(=O)[C@H](C)NC(=O)[C@H](C)NC(=O)[C@H](Cc1c[nH]c2ccccc12)NC(=O)[C@H](CC(C)C)NC(=O)[C@H](CC(N)=O)NC(C)=O)C(=O)N[C@@H](CO)C(=O)N[C@@H](CC(=O)O)C(=O)N[C@@H](CCC(=O)O)C(=O)N[C@@H](Cc1ccccc1)C(=O)N[C@H](C(=O)N[C@@H](CC(=O)O)C(=O)N[C@@H](CO)C(=O)N[C@@H](Cc1ccccc1)C(=O)N[C@@H](CCCCN)C(=O)N[C@@H](CCCCN)C(N)=O)C(C)C [BAD-wt, reference compound]
IC50 [1]: > 50 µM

Kd [2]: 9.7 ± 2.3 µM
Compound: CC[C@H](C)[C@H](NC(=O)[C@H](CC(=O)O)NC(=O)[C@H](Cc1ccccc1)NC(=O)[C@H](CC(C)C)NC(=O)[C@H](CC(=O)O)NC(=O)CNC(=O)[C@@H](NC(=O)[C@@H](NC(=O)[C@H](CCCCN)NC(=O)[C@H](CC(C)C)NC(=O)[C@H](CCCNC(=N)N)NC(=O)[C@H](CCCNC(=N)N)NC(=O)[C@H](CO)NC(=O)[C@H](CC(C)C)NC(=O)[C@H](CC(N)=O)NC(=O)[C@H](CCC(=O)O)NC(=O)[C@H](CCSC)NC(=O)[C@@H](NC(=O)CCCCCNC(=O)c1ccc2c(c1)C(=O)OC21c2ccc(O)cc2Oc2cc(O)ccc21)[C@@H](C)O)C(C)C)[C@@H](C)O)C(=O)N[C@@H](CCSC)C(=O)N[C@@H](CO)C(N)=O [FAM-Ahx-Beclin-1] ({5FAM-Ahx}-TMENLSRRLKVTGDLFDIMS-NH2)

Compound: CCCC[C@H](NC(=O)[C@H](C)NC(=O)[C@H](CCCCN)NC(=O)[C@H](CC(C)C)NC(=O)[C@H](CCCNC(=N)N)NC(=O)[C@H](C)NC(=O)[C@H](C)NC(=O)[C@H](Cc1ccc(O)cc1)NC(=O)[C@H](CC(C)C)NC(=O)[C@H](CCC(N)=O)NC(=O)[C@H](C)NC(=O)[C@H](C)NC(=O)[C@H](CO)NC(C)=O)C(=O)NCC(=O)N[C@@H](CC(=O)O)C(=O)N[C@@H](CCC(=O)O)C(=O)N[C@@H](Cc1ccccc1)C(=O)N[C@@H](Cc1c[nH]cn1)C(=O)N[C@@H](CCC(N)=O)C(N)=O [HRK-3] (Ac-SAAQLYAARLKA[Nle]GDEFHQ-NH2)
IC50 [1]: > 50 µM

Compound: CC(=O)N[C@@H](CO)C(=O)N[C@@H](C)C(=O)N[C@@H](C)C(=O)N[C@@H](CCC(N)=O)C(=O)N[C@@H](CC(C)C)C(=O)N[C@@H](Cc1ccc(O)cc1)C(=O)N[C@@H](C)C(=O)N[C@@H](CS)C(=O)N[C@@H](CCCNC(=N)N)C(=O)N[C@@H](CC(C)C)C(=O)N[C@@H](CCCCN)C(=O)N[C@@H](CS)C(=O)N[C@@H](Cc1ccccc1)C(=O)NCC(=O)N[C@@H](CC(=O)O)C(=O)N[C@@H](CCC(=O)O)C(=O)N[C@@H](Cc1ccccc1)C(=O)N[C@@H](Cc1c[nH]cn1)C(=O)N[C@@H](CCC(N)=O)C(N)=O [HRKC4H] (Ac-SAAQLYACRLKCFGDEFHQ-NH2)
IC50 [1]: > 50 µM
IC50 ratio MCL-1 : BCL-xL (selectivity index) [3]: >2.5

Compound: CSCC[C@H](NC(=O)[C@@H](NC(=O)[C@H](CCCNC(=N)N)NC(=O)[C@H](CCC(N)=O)NC(=O)[C@H](Cc1c[nH]cn1)NC(=O)[C@H](CC(C)C)NC(=O)[C@H](CCC(=O)O)NC(=O)[C@H](CC(=O)O)NC(=O)CNC(=O)[C@H](CC(C)C)NC(=O)[C@H](CS)NC(=O)[C@H](CCCCN)NC(=O)[C@H](CC(C)C)NC(=O)[C@H](CCCNC(=N)N)NC(=O)[C@H](CS)NC(=O)[C@H](C)NC(=O)[C@@H](NC(=O)[C@H](CC(C)C)NC(=O)[C@H](CCC(N)=O)NC(=O)[C@H](C)NC(=O)[C@H](C)NC(=O)[C@H](CO)NC(C)=O)[C@@H](C)O)[C@@H](C)O)C(=O)N[C@@H](Cc1c[nH]c2ccccc12)C(N)=O [HRKC4] (Ac-SAAQLTACRLKCLGDELHQRTMW-NH2)
IC50 [1]: 3.9 ± 0.2 µM

Compound: CC(=O)N[C@@H](CO)C(=O)N[C@@H](C)C(=O)N[C@@H](C)C(=O)N[C@@H](CCC(N)=O)C(=O)N[C@@H](CC(C)C)C(=O)N[C@@H](Cc1ccc(O)cc1)C(=O)N[C@@H](C)C(=O)N[C@H]1CSC2=C(SC[C@@H](C(=O)N[C@@H](Cc3ccccc3)C(=O)NCC(=O)N[C@@H](CC(=O)O)C(=O)N[C@@H](CCC(=O)O)C(=O)N[C@@H](Cc3ccccc3)C(=O)N[C@@H](Cc3c[nH]cn3)C(=O)N[C@@H](CCC(N)=O)C(N)=O)NC(=O)[C@H](CCCCN)NC(=O)[C@H](CC(C)C)NC(=O)[C@H](CCCNC(=N)N)NC1=O)C(=O)NC2=O [HRKS4H] (Ac-SAAQLYACRLKCFGDEFHQ-NH2; linker 8-12 via Maleimide(3,4-diyl))
IC50 [1]: > 50 µM
IC50 ratio MCL-1 : BCL-xL (selectivity index) [3]: >5.9

Compound: Ac-RYGRELRRMSDEFVDSFKK-NH2 [BAD-s, reference compound]
IC50 [1]: > 50 µM

Compound: Ac-SAAQLLAARLKAFGDEFHQ-NH2 [HRK-5]
IC50 [1]: 16 ± 4.4 µM
IC50 ratio MCL-1 : BCL-xL (selectivity index) [3]: 16.0

Compound: Ac-SAAQLLAARLKALGDELHQ-NH2 [HRK-4]
IC50 [1]: 3.5 ± 1.2 µM
IC50 ratio MCL-1 : BCL-xL (selectivity index) [3]: 2.5

Compound: Ac-SAAQLTAARLKALGDELHQ-NH2 [HRK-s]
IC50 [1]: > 50 µM
IC50 ratio MCL-1 : BCL-xL (selectivity index) [3]: > 2.3

Compound: Ac-SAAQLYAARLKAFGDEFHQ-NH2 [HRK-hybrid]
IC50 [1]: > 50 µM
IC50 ratio MCL-1 : BCL-xL (selectivity index) [3]: >55.5

Compound: Ac-SAAQLYAARLKALGDEFHQ-NH2 [HRK-2]
IC50 [1]: > 50 µM
IC50 ratio MCL-1 : BCL-xL (selectivity index) [3]: > 45.4

Compound: Ac-SAAQLYAARLKALGDELHQ-NH2 [HRK-1]
IC50 [1]: > 50 µM
IC50 ratio MCL-1 : BCL-xL (selectivity index) [3]: > 5.8
